Test results published in patent US12048709B2 (scPharmaceuticals Inc., priority 2019, dated 2024).
Where two headings read alike, the source gives them in different places.

Legend:
[1] = Study 4
Procedure: (§1) Samples were tumbled for 48 hours at ambient conditions and protected from light.
A full factorial DOE study was performed to determine the optimal amounts of NMP, benzyl alcohol and buffer (tromethamine) required to produce the highest solubility. Any potential synergistic effects stemming from various excipient combinations were also investigated.

[2] = for Apparent pH: 2% Benzyl Alcohol
Procedure: as §1

[3] = not given; remark: listed apart in the source
[4] = 200 mM Sodium Phosphate, target pH 6.0, t24 h
[5] = 200 mM Tromethamine/HCl, target pH 8.5, t2 h

SMILES: NS(=O)(=O)c1cc(C(=O)O)c(NCc2ccco2)cc1Cl [furosemide, 4-chloro-2-(furan-2-ylmethylamino)-5-sulfamoyl-benzoic acid]
- pH variability [1]: up to 0.3 pH units
- Apparent pH ([2]; 100 mM Tromethamine pH 5.0, 25% NMP, t2 h): 5.0
- Apparent pH ([2]; 100 mM Tromethamine pH 5.0, 25% NMP, t24 h): 4.6
- Apparent pH ([2]; 100 mM Tromethamine pH 5.0, 25% NMP, t48 h): 5.1
- Apparent pH ([2]; 100 mM Tromethamine pH = 4.0, 25% NMP, t2 h): 3.9
- Apparent pH ([2]; 100 mM Tromethamine pH = 4.0, 25% NMP, t24 h): 3.6
- Apparent pH ([2]; 100 mM Tromethamine pH = 4.0, 25% NMP, t48 h): 4.7
- pH variability ([2]; Study 6, pH 4.0 test samples): 0.7 units
- Osmolarity (~50 mM Potassium Phosphate, target pH 6.0, t2 h): 108 mOsm/Kg
- Osmolarity (~50 mM Potassium Phosphate, target pH 6.0, t24 h): 105 mOsm/Kg
- Osmolarity (~50 mM Potassium Phosphate, target pH 6.0, t48 h): 115 mOsm/Kg
- Osmolarity (~50 mM Potassium Phosphate, target pH 7.4, t2 h): 193 mOsm/Kg
- Osmolarity (~50 mM Potassium Phosphate, target pH 7.4, t24 h): 190 mOsm/Kg
- Osmolarity (~50 mM Potassium Phosphate, target pH 7.4, t48 h): 213 mOsm/Kg
- Osmolarity (~50 mM Potassium Phosphate, target pH 8.5, t2 h): 265 mOsm/Kg
- Osmolarity (~50 mM Potassium Phosphate, target pH 8.5, t24 h): 255 mOsm/Kg
- Osmolarity (~50 mM Potassium Phosphate, target pH 8.5, t48 h): 283 mOsm/Kg
- Osmolarity (~50 mM Sodium Phosphate, target pH 6.0, t2 h): 212 mOsm/Kg
- Osmolarity (~50 mM Sodium Phosphate, target pH 6.0, t24 h): 118 mOsm/Kg
- Osmolarity (~50 mM Sodium Phosphate, target pH 6.0, t48 h): 141 mOsm/Kg
- Osmolarity (~50 mM Sodium Phosphate, target pH 7.4, t2 h): 232 mOsm/Kg
- Osmolarity (~50 mM Sodium Phosphate, target pH 7.4, t24 h): 233 mOsm/Kg
- Osmolarity (~50 mM Sodium Phosphate, target pH 7.4, t48 h): 237 mOsm/Kg
- Osmolarity (~50 mM Sodium Phosphate, target pH 8.5, t2 h): 241 mOsm/Kg
- Osmolarity (~50 mM Sodium Phosphate, target pH 8.5, t24 h): 242 mOsm/Kg
- Osmolarity (~50 mM Sodium Phosphate, target pH 8.5, t48 h): 276 mOsm/Kg
- Osmolarity (~50 mM Tromethamine/HCl, target pH 6.0, t2 h): 124 mOsm/Kg
- Osmolarity (~50 mM Tromethamine/HCl, target pH 6.0, t24 h): 129 mOsm/Kg
- Osmolarity (~50 mM Tromethamine/HCl, target pH 6.0, t48 h): 133 mOsm/Kg
- Osmolarity (~50 mM Tromethamine/HCl, target pH 7.4, t2 h): 165 mOsm/Kg
- Osmolarity (~50 mM Tromethamine/HCl, target pH 7.4, t24 h): 181 mOsm/Kg
- Osmolarity (~50 mM Tromethamine/HCl, target pH 7.4, t48 h): 186 mOsm/Kg
- Osmolarity (~50 mM Tromethamine/HCl, target pH 8.5, t2 h): 242 mOsm/Kg
- Osmolarity (~50 mM Tromethamine/HCl, target pH 8.5, t24 h): 239 mOsm/Kg
- Osmolarity (~50 mM Tromethamine/HCl, target pH 8.5, t48 h): 258 mOsm/Kg
- Osmolarity ([3]; 200 mM Citrate, target pH 6.0, t2 h): 516 mOsm/kg
- Osmolarity ([3]; 200 mM Citrate, target pH 6.0, t24 h): 533 mOsm/kg
- Osmolarity ([3]; 200 mM Citrate, target pH 6.0, t48 h): 557 mOsm/kg
- Osmolarity ([3]; 200 mM Citrate, target pH 7.4, t2 h): 488 mOsm/kg
- Osmolarity ([3]; 200 mM Citrate, target pH 7.4, t24 h): 484 mOsm/kg
- Osmolarity ([3]; 200 mM Citrate, target pH 7.4, t48 h): 549 mOsm/kg
- Osmolarity ([3]; 200 mM Histidine/HCl, target pH 6.0, t2 h): 441 mOsm/kg
- Osmolarity ([3]; 200 mM Histidine/HCl, target pH 6.0, t24 h): 392 mOsm/kg
- Osmolarity ([3]; 200 mM Histidine/HCl, target pH 6.0, t48 h): 477 mOsm/kg
- Osmolarity ([3]; 200 mM Histidine/HCl, target pH 7.4, t2 h): 588 mOsm/kg
- Osmolarity ([3]; 200 mM Histidine/HCl, target pH 7.4, t24 h): 584 mOsm/kg
- Osmolarity ([3]; 200 mM Histidine/HCl, target pH 7.4, t48 h): 616 mOsm/kg
- Osmolarity ([3]; 200 mM Histidine/HCl, target pH 8.5, t2 h): 553 mOsm/kg
- Osmolarity ([3]; 200 mM Histidine/HCl, target pH 8.5, t24 h): 558 mOsm/kg
- Osmolarity ([3]; 200 mM Histidine/HCl, target pH 8.5, t48 h): 678 mOsm/kg
- Osmolarity ([3]; 200 mM Potassium Phosphate, target pH 6.0, t2 h): 384 mOsm/kg
- Osmolarity ([3]; 200 mM Potassium Phosphate, target pH 6.0, t24 h): 383 mOsm/kg
- Osmolarity ([3]; 200 mM Potassium Phosphate, target pH 6.0, t48 h): 376 mOsm/kg
- Osmolarity ([3]; 200 mM Potassium Phosphate, target pH 7.4, t2 h): 462 mOsm/kg
- Osmolarity ([3]; 200 mM Potassium Phosphate, target pH 7.4, t24 h): 471 mOsm/kg
- Osmolarity ([3]; 200 mM Potassium Phosphate, target pH 7.4, t48 h): 481 mOsm/kg
- Osmolarity ([3]; 200 mM Potassium Phosphate, target pH 8.5, t2 h): 487 mOsm/kg
- Osmolarity ([3]; 200 mM Potassium Phosphate, target pH 8.5, t24 h): 497 mOsm/kg
- Osmolarity ([3]; 200 mM Potassium Phosphate, target pH 8.5, t48 h): 423 mOsm/kg
- Osmolarity ([3]; 200 mM Sodium Phosphate, target pH 6.0, t2 h): 388 mOsm/kg
- Apparent pH [3, 4]: 5.1
- Osmolarity [3, 4]: 399 mOsm/kg
- Osmolarity ([3]; 200 mM Sodium Phosphate, target pH 6.0, t48 h): 393 mOsm/kg
- Osmolarity ([3]; 200 mM Sodium Phosphate, target pH 7.4, t2 h): 330 mOsm/kg
- Osmolarity ([3]; 200 mM Sodium Phosphate, target pH 7.4, t24 h): 310 mOsm/kg
- Osmolarity ([3]; 200 mM Sodium Phosphate, target pH 7.4, t48 h): 310 mOsm/kg
- Osmolarity ([3]; 200 mM Sodium Phosphate, target pH 8.5, t2 h): 282 mOsm/kg
- Osmolarity ([3]; 200 mM Sodium Phosphate, target pH 8.5, t24 h): 267 mOsm/kg
- Osmolarity ([3]; 200 mM Sodium Phosphate, target pH 8.5, t48 h): 285 mOsm/kg
- Osmolarity ([3]; 200 mM Tromethamine, target pH 6.0, t2 h): 403 mOsm/kg
- Osmolarity ([3]; 200 mM Tromethamine, target pH 6.0, t24 h): 406 mOsm/kg
- Osmolarity ([3]; 200 mM Tromethamine, target pH 6.0, t48 h): 446 mOsm/kg
- Osmolarity ([3]; 200 mM Tromethamine, target pH 7.4, t2 h): 434 mOsm/kg
- Osmolarity ([3]; 200 mM Tromethamine, target pH 7.4, t24 h): 481 mOsm/kg
- Osmolarity ([3]; 200 mM Tromethamine, target pH 7.4, t48 h): 482 mOsm/kg
- Osmolarity ([3]; 200 mM Tromethamine, target pH 8.5, t2 h): 403 mOsm/kg
- Osmolarity ([3]; 200 mM Tromethamine, target pH 8.5, t24 h): 347 mOsm/kg
- Osmolarity ([3]; 200 mM Tromethamine, target pH 8.5, t48 h): 433 mOsm/kg
- Osmolarity ([3]; 200 mM Tromethamine/HCl, target pH 6.0, t2 h): 121 mOsm/kg
- Osmolarity ([3]; 200 mM Tromethamine/HCl, target pH 6.0, t24 h): 114 mOsm/kg
- Osmolarity ([3]; 200 mM Tromethamine/HCl, target pH 6.0, t48 h): 127 mOsm/kg
- Osmolarity ([3]; 200 mM Tromethamine/HCl, target pH 7.4, t2 h): 232 mOsm/kg
- Osmolarity ([3]; 200 mM Tromethamine/HCl, target pH 7.4, t24 h): 215 mOsm/kg
- Osmolarity ([3]; 200 mM Tromethamine/HCl, target pH 7.4, t48 h): 233 mOsm/kg
- Apparent pH [3, 5]: 8.8
- Osmolarity [3, 5]: 177 mOsm/kg
- Osmolarity ([3]; 200 mM Tromethamine/HCl, target pH 8.5, t24 h): 257 mOsm/kg
- Osmolarity ([3]; 200 mM Tromethamine/HCl, target pH 8.5, t48 h): 252 mOsm/kg
